From patent US20230322724A1, “HETEROCYCLIC COMPOUNDS AS CBP/EP300 BROMODOMAIN INHIBITORS” (AURIGENE ONCOLOGY LIMITED, priority 2020, published 2023)
Like-named read-outs stand apart in the source and are kept apart here.

Assays:
Type in all cases: binding
[1] = biological target: T1, recombinant CREBBP bromodomain (Homo sapiens, UniProt Q92793); experiment: CBP TR-FRET displacement assay; details: for inhibition at 10 µM: compound at 10 μM; for IC50: dose-response, read-out: IC50 (group A, B, C)
T1 construct: recombinant CREBBP bromodomain obtained from BPS Bioscience, USA; purchased BPS Bioscience, USA
How it was run: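 CREBBP bromodomain (50 nM) preincubated 30 min at room temperature with 500 nM biotinylated ligand in HEPES pH 7.5 buffer with TCEP, then 60 min with compound. Eu-anti-His/APC-streptavidin TR-FRET 665/615 nm ratio read; IC50 from sigmoidal dose-response fit.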

[2] = biological target: T2, recombinant P300 bromodomain (Homo sapiens, UniProt Q09472); experiment: P300 TR-FRET displacement assay; details: dose-response, read-out: IC50 (group A, B, C)
T2 construct: recombinant P300 bromodomain obtained from BPS Bioscience, USA; purchased BPS Bioscience, USA
T2 sequence (Q09472 1049-1156 limits assumed): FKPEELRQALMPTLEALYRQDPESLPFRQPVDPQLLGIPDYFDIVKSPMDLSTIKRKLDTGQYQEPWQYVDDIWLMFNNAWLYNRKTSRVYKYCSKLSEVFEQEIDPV
Experimental: The potency of compounds to inhibit P300 enzyme was tested in a TR-FRET displacement assay using recombinant P300 bromodomain obtained from BPS Bioscience, USA. The assay buffer was 50 mM HEPES (pH 7.5), 50 mM NaCl, 0.008% Brij 35, 0.01% BSA, 1 mM TCEP. 50 nM of P300 & 500 nM of Biotinylated ligand was incubated at room temperature for 30 minutes, the reaction was initiated by adding the pre-incubated enzyme ligand mixture to the test compounds. After 60 min incubation, the reaction was stopped by the addition of stop mix containing 1 nM of LANCE Europium-anti-6xHis antibody (Perkin Elmer, USA) and 40 nM of Sure Light Allophycocyanin-Streptavidin (Perkin Elmer, USA). Fluorescence emission of the samples at 665 and 615 nm were measured at an excitation of 340 nm and their ratio was plotted against the compound concentrations to generate dose-response curve.
(§1) Selected compounds of the present invention were screened in the above-mentioned assay procedures and IC50 values were determined by fitting the dose-response data to sigmoidal curve fitting equation using Graph pad prism software V7.

[3] = biological target: T3, recombinant BRD4 FL bromodomain (Homo sapiens, UniProt O60885); experiment: BRD4 FL TR-FRET displacement assay; details: for IC50: dose-response, read-out: IC50 (group A, B, C); for inhibition at 10 µM: read-out: % Inhibition (10 μM)
T3 construct: fused on or other part: 6xHis tag, inferred from detection with Mab ANTI 6HIS-XL665
Experimental: The potency of compounds to inhibit BRD4 FL enzyme was tested in a TR-FRET displacement assay using recombinant BRD4 FL bromodomain obtained In-house. The assay buffer was 50 mM HEPES (pH 7.5), 50 mM NaCl, 500 μM CHAPS. 10 nM of BRD4 FL & 300 nM of Biotinylated Acetyl histone H4 (Lys 5, 8, 12, 16) (Millipore, USA) was incubated at room temperature for 30 minutes, the reaction was initiated by adding the pre-incubated enzyme ligand mixture to the test compounds. After 30 min incubation, the reaction was stopped by the addition of stop mix containing 1 nM of Europium Streptavidin cryptate (Cisbio, USA) and 5 nM of Mab ANTI 6HIS-XL665 (Cisbio, USA) dilutes in assay buffer containing 2.4M Potassium Fluoride. Fluorescence emission of the samples at 665 and 615 nm were measured at an excitation of 340 nm and their ratio was plotted against the compound concentrations to generate dose-response curve. The percent inhibition of the test compounds is calculated using the ratio of enzyme activity controls.
as §1

T1 sequence (Q92793 1085-1192 limits assumed): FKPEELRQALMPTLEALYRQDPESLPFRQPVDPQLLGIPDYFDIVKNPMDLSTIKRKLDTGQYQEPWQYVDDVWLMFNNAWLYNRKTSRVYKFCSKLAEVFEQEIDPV

Structure (SMILES) | IC50 [1] [µM] | IC50 ([3]; BRD4 FL) [µM] | also measured
Cc1cc2c(N3CCN(C)c4cc(-c5cnn(C)c5)c(C#N)cc43)cc(OCC3CCCN(C)C3)cc2n(C)c1=O (single isomer, unassigned) [Example 247, 4-(1,3-Dimethyl-7-((1-methylpiperidin-3-yl)methoxy)-2-oxo-1,2-dihydroquinolin-5-yl)-1-methyl-7-(1-methyl-1H-pyrazol-4-yl)-1,2,3,4-tetrahydroquinoxaline-6-carbonitrile] | < 0.05 |  | inhibition at 10 µM [1]: 95%; IC50 [2]: < 0.025 µM
COc1cc(N2CCN(C)c3cc(-c4cnn(C)c4)c(C#N)cc32)c2cc(C)c(=O)n(C)c2c1 [Example 1, 4-(7-Methoxy-1,3-dimethyl-2-oxo-1,2-dihydroquinolin-5-yl)-1-methyl-7-(1-methyl-1H-pyrazol-4-yl)-1,2,3,4-tetrahydroquinoxaline-6-carbonitrile] | < 0.05 |  | inhibition at 10 µM [1]: 99%; IC50 [2]: < 0.025 µM
CC(=O)N1CCN(c2cc(N3CCOCC3)cc3c2cc(C)c(=O)n3C)c2cnc(-c3cnn(C)c3)cc21 [Example 162, 5-(1-Acetyl-7-(1-methyl-1H-pyrazol-4-yl)-2,3-dihydropyrido[3,4-b]pyrazin-4(1H)-yl)-1,3-dimethyl-7-morpholinoquinolin-2(1H)-one] | < 0.05 | 2.01 to 5 | 
Cc1cc2c(N3CCN(C(F)F)c4cc(-c5cnn(C)c5)ncc43)cc(N3CCOCC3)cc2n(C)c1=O [Example 163, 5-(1-(Difluoromethyl)-7-(1-methyl-1H-pyrazol-4-yl)-2,3-dihydropyrido[3,4-b]pyrazin-4(1H)-yl)-1,3-dimethyl-7-morpholinoquinolin-2(1H)-one] | > 0.01 |  | inhibition at 10 µM [3]: 16%
Cc1cc2c(N3CCN(CC(=O)O)c4cc(-c5cnn(C)c5)ncc43)cc(N3CCOCC3)cc2n(C)c1=O [Example 164, 2-(4-(1,3-Dimethyl-7-morpholino-2-oxo-1,2-dihydroquinolin-5-yl)-7-(1-methyl-1H-pyrazol-4-yl)-3,4-dihydropyrido[3,4-b]pyrazin-1(2H)-yl)acetic acid] | 0.051 to 0.1 |  | inhibition at 10 µM ([3]; BRD4 FL, compound at 10 μM): 38%
CNC(=O)CN1CCN(c2cc(N3CCOCC3)cc3c2cc(C)c(=O)n3C)c2cnc(-c3cnn(C)c3)cc21 [Example 165, 2-(4-(1,3-Dimethyl-7-morpholino-2-oxo-1,2-dihydroquinolin-5-yl)-7-(1-methyl-1H-pyrazol-4-yl)-3,4-dihydropyrido[3,4-b]pyrazin-1(2H)-yl)-N-methylacetamide] | < 0.05 |  | inhibition at 10 µM ([3]; BRD4 FL, compound at 10 μM): 51%
COc1cc(N2CCCc3cc(N4CCN(C(C)=O)CC4)ncc32)c2cc(C)c(=O)n(C)c2c1 [Example 166, 5-(6-(4-Acetylpiperazin-1-yl)-3,4-dihydro-1,7-naphthyridin-1(2H)-yl)-7-methoxy-1,3-dimethylquinolin-2(1H)-one] | 0.051 to 0.1 | 2.01 to 5 | 
COc1cc(N2CCCc3cc(-c4cnn(C)c4)ncc32)c2cc(C)c(=O)n(C)c2c1 [Example 167] | < 0.05 | 2.01 to 5 | 
COc1cc(N2CCOc3cc(-c4cnn(C)c4)ncc32)c2cc(C)c(=O)n(C)c2c1 [Example 170] | < 0.05 | 2.01 to 5 | 
Cc1cc2c(N3CCCc4cc(-c5cnn(C)c5)c(C(F)F)cc43)cc(C3CCOCC3)cc2n(C)c1=O [Example 179] | < 0.05 | 2.01 to 5 | 
CNC(=O)C1CCN(c2cc3c(cc2C#N)N(c2cc(OC)cc4c2cc(C)c(=O)n4C)CCC3)CC1 [Example 181] | < 0.05 | 2.01 to 5 | 
COc1cc(N2CCCc3cc(N4CCN(C(C)=O)CC4)c(C#N)cc32)c2cc(C)c(=O)n(C)c2c1 [Example 182] | < 0.05 | 2.01 to 5 | 
CNC(=O)c1ccc(-c2cc3c(cc2C#N)N(c2cc(OC)cc4c2cc(C)c(=O)n4C)CCC3)cn1 [Example 183] | < 0.05 | 2.01 to 5 | 
CC1Cc2c(cc(N3CC[C@@H](O)C3)cc2N2CCCc3cc(-c4cnn(C)c4)c(C(F)F)cc32)N(C)C1=O (stereo partly drawn) [Example 193, 7-(Difluoromethyl)-7′-((R)-3-hydroxypyrrolidin-1-yl)-1′,3′-dimethyl-6-(1-methyl-1H-pyrazol-4-yl)-3,3′,4,4′-tetrahydro-2H-[1,5′-biquinolin]-2′(1′H)-one] | > 0.01 | 2.01 to 5 | 
CC(=O)N1CCN(c2cc3c(cc(C)c(=O)n3C)c(N3CCCc4cc(-c5cnn(C)c5)c(C(F)F)cc43)n2)CC1 [Example 200, 7-(4-Acetylpiperazin-1-yl)-5-(7-(difluoromethyl)-6-(1-methyl-1H-pyrazol-4-yl)-3,4-dihydroquinolin-1(2H)-yl)-1,3-dimethyl-1,6-naphthyridin-2(1H)-one] | < 0.05 | 2.01 to 5 | 
CNC(=O)C1CCN(c2cc3c(cc(C)c(=O)n3C)c(N3CCN(C)c4cc(-c5cnn(C)c5)ncc43)n2)C1 (centres unmarked) [Example 205] | 0.051 to 0.1 |  | inhibition at 10 µM ([3]; BRD4 FL, compound at 10 μM): 43%
Cc1cc2c(N3CCCc4cc(-c5cnn(C)c5)c(C(F)F)cc43)nc(N3CCC(O)C3)cc2n(C)c1=O (centres unmarked) [Example 208] | < 0.05 | 2.01 to 5 | 
Cc1cc2c(N3CCCc4cc(-c5cnn(C)c5)c(C(F)F)cc43)nc(N3CC4CCC(C3)O4)cc2n(C)c1=O [Example 217] | < 0.05 |  | inhibition at 10 µM ([3]; BRD4 FL, compound at 10 μM): 46%
Cc1cc2c(N3CCCc4cc(-c5cnn(C)c5)c(C(F)F)cc43)nc(N3C4CCC3COC4)cc2n(C)c1=O [Example 218] | < 0.05 | 2.01 to 5 | 
Cc1cc2c(N3CCCc4cc(-c5cnn(C)c5)c(C(F)F)cc43)nc(N3C[C@@H]4C[C@H]3CO4)cc2n(C)c1=O [Example 219] | < 0.05 | 2.01 to 5 | 
Cc1cc2c(N3CCN(C)c4cc(-c5cnn(C)c5)ncc43)nc(N3CC4(COC4)C3)cc2n(C)c1=O [Example 220] | > 0.01 | 2.01 to 5 | 
Cc1cc2c(N3CCCc4cc(-c5nnn(C)n5)c(C(F)F)cc43)nc(N3CCOCC3)cc2n(C)c1=O [Example 226] | 0.051 to 0.1 | 2.01 to 5 | 
Cc1cc2c(N3CCCc4ccc(C(F)F)cc43)nc(N3CCC(O)C3)cc2n(C)c1=O (centres unmarked) [Example 230] | > 0.01 |  | inhibition at 10 µM ([3]; BRD4 FL, compound at 10 μM): 21%
COc1cc2c(cc(C)c(=O)n2C)c(N2CCCc3cc(-c4cnn(C)c4)c(C(F)F)cc32)n1 [Example 233, 5-(7-(Difluoromethyl)-6-(1-methyl-1H-pyrazol-4-yl)-3,4-dihydroquinolin-1(2H)-yl)-7-methoxy-1,3-dimethyl-1,6-naphthyridin-2(1H)-one] | 0.051 to 0.1 | 2.01 to 5 | 
Cc1cc2c(N3CCCc4cc(-c5cnn(C)c5)c(C(F)F)cc43)nc(C3=CCOCC3)cc2n(C)c1=O [Example 241, 5-(7-(Difluoromethyl)-6-(1-methyl-1H-pyrazol-4-yl)-3,4-dihydroquinolin-1(2H)-yl)-7-(3,6-dihydro-2H-pyran-4-yl)-1,3-dimethyl-1,6-naphthyridin-2(1H)-one] | 0.051 to 0.1 |  | inhibition at 10 µM ([3]; BRD4 FL, compound at 10 μM): 22%
CC1Cc2c(cc(N3CC[C@@H](O)C3)nc2N2CCCc3cc(-c4cnn(C)c4)c(C(F)F)cc32)N(C)C1=O (stereo partly drawn) [Example 243, 5-(7-(Difluoromethyl)-6-(1-methyl-1H-pyrazol-4-yl)-3,4-dihydroquinolin-1(2H)-yl)-7-((R)-3-hydroxypyrrolidin-1-yl)-1,3-dimethyl-3,4-dihydro-1,6-naphthyridin-2(1H)-one] | > 0.01 | 2.01 to 5 | 
Cc1cc2c(N3CCCc4cc(-c5cnn(C)c5)c(O)cc43)nc(N3CCC(O)C3)cc2n(C)c1=O (centres unmarked) [Example 245, 5-(7-Hydroxy-6-(1-methyl-1H-pyrazol-4-yl)-3,4-dihydroquinolin-1(2H)-yl)-7-(3-hydroxypyrrolidin-1-yl)-1,3-dimethyl-1,6-naphthyridin-2(1H)-one] | < 0.05 | 2.01 to 5 | 
